Experimental data: patent US20230117328A1, “METHODS TO TREAT CANCER USING (R)-N-(3-FLUORO-4-((3-((1-HYDROXYPROPAN-2-YL)AMINO)-1H-PYRAZOLO[3,4-B]PYRIDIN-4-YL)OXY)PHENYL)-3-(4-FLUOROPHENYL)-1-ISOPROPYL-2,4-DIOXO-1,2,3,4-TETRAHYDROPYRIMIDINE-5-CARBOXAMIDE” (Array BioPharma Inc., priority 2020, published 2023)
“Also recorded” adds a separate entry of the source.

How the values were obtained:
BCRP = target: T1, BCRP (Homo sapiens, UniProt Q9UNQ0); assay: BCRP substrate assessment in vitro; assay type: in vitro ADME
T1 sequence (Q9UNQ0 1-655): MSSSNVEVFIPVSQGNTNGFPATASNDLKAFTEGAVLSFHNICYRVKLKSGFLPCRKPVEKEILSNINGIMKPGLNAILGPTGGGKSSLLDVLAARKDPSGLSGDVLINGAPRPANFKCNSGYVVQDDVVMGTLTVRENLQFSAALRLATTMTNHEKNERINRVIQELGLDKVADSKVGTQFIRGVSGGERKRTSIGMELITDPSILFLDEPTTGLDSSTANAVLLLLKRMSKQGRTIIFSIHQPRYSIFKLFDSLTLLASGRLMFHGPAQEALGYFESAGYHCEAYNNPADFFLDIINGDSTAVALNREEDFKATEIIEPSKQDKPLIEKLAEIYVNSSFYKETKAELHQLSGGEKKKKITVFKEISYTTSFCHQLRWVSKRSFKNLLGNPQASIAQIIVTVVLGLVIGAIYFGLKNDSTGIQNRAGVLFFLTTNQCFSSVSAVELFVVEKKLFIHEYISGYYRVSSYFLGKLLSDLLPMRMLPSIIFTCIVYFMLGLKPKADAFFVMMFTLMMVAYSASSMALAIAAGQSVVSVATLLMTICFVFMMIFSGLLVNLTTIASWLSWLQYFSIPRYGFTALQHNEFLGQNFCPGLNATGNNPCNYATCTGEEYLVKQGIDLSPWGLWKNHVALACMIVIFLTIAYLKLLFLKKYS

P-gp = P-gp (Homo sapiens, UniProt P08183); assay: P-gp inhibition; assay type: in vitro ADME
CYP2D6 = CYP2D6 (Homo sapiens, UniProt P10635); assay: In vitro metabolism by CYP2D6; assay type: in vitro ADME
in vivo = settings: female, rat
Sprague Dawley rats = assay: 28-day repeat dose oral toxicity and toxicokinetic study with 28-day recovery period; assay type: in vivo
Aqueous solubility = assay type: physicochemical
[1] = Tolerability (body weight loss, deaths) in MC-38 tumor-bearing cohorts; assay type: in vivo; settings: for Deaths (any cause) / Maximum % Body Weight Loss: MC-38 tumor-bearing mice
Description: As monotherapy, anti-PD-1 was administered twice weekly (BIW) for 2 consecutive weeks by intraperitoneal (IP) injection at 200 μg/mouse (Days 10, 13, 17, and 20).
Animals were monitored for tumor growth and body weight 2-3 times per week based on outgrowth kinetics. Tumor diameter was measured with digital calipers, and the tumor volume in mm^3 was calculated by the formula: Volume=((width)^2×length)/2. Animals were removed from study if found moribund or if tumor volume exceeded 1500 mm^3.
Any animals remaining with no palpable tumors were scored as cures.
Survival was defined as morbidity, mortality or tumor size exceeding 1500 mm^3.

[2] = Tolerability (body weight loss, deaths) in tumor-naive cohorts; assay type: in vivo; settings: tumor-naive mice
Description: Anti-PD-1 was administered twice weekly (BIW) for 2 consecutive weeks by intraperitoneal (IP) injection at 200 μg/mouse. […] Concomitantly, a set of satellite cohorts comprising tumor-naïve mice was treated with the same schedules and doses as indicated above. […]

[3] = oral QD 28 days at 30, 100 or 300/200 mg/kg
[4] = Compound 1 50 mg/kg PO BID Days 10-16 (7 days) in combination with anti-PD-1 200 μg IP BIW (Days 10, 13, 17, 20)
[5] = Compound 1 50 mg/kg PO BID Days 10-16 and Days 24-30 (interval schedule) in combination with anti-PD-1 200 μg IP BIW (Days 10, 13, 17, 20)
[6] = Compound 1 50 mg/kg PO BID Days 10-23 (14 days) in combination with anti-PD-1 200 μg IP BIW (Days 10, 13, 17, 20)
[7] = Compound 1 50 mg/kg PO BID Days 10-30 (21 days) in combination with anti-PD-1 200 μg IP BIW (Days 10, 13, 17, 20)
[8] = Compound 1 50 mg/kg PO BID Days 10-37 (28 days) in combination with anti-PD-1 200 μg IP BIW (Days 10, 13, 17, 20)
[9] = Compound 1 monotherapy, 50 mg/kg PO BID Days 10-37 (28 days)
[10] = Compound 1 50 mg/kg PO BID Days 10-16/24-30 in combination with anti-PD-1 200 μg IP BIW
[11] = Compound 1 50 mg/kg PO BID Days 10-16 in combination with anti-PD-1 200 μg IP BIW
[12] = Compound 1 50 mg/kg PO BID Days 10-23 in combination with anti-PD-1 200 μg IP BIW
[13] = Compound 1 50 mg/kg PO BID Days 10-30 in combination with anti-PD-1 200 μg IP BIW
[14] = Compound 1 50 mg/kg PO BID Days 10-37 in combination with anti-PD-1 200 μg IP BIW
[15] = Compound 1 monotherapy, 50 mg/kg PO BID Days 10-37

Sequence of P-gp (P08183 whole entry): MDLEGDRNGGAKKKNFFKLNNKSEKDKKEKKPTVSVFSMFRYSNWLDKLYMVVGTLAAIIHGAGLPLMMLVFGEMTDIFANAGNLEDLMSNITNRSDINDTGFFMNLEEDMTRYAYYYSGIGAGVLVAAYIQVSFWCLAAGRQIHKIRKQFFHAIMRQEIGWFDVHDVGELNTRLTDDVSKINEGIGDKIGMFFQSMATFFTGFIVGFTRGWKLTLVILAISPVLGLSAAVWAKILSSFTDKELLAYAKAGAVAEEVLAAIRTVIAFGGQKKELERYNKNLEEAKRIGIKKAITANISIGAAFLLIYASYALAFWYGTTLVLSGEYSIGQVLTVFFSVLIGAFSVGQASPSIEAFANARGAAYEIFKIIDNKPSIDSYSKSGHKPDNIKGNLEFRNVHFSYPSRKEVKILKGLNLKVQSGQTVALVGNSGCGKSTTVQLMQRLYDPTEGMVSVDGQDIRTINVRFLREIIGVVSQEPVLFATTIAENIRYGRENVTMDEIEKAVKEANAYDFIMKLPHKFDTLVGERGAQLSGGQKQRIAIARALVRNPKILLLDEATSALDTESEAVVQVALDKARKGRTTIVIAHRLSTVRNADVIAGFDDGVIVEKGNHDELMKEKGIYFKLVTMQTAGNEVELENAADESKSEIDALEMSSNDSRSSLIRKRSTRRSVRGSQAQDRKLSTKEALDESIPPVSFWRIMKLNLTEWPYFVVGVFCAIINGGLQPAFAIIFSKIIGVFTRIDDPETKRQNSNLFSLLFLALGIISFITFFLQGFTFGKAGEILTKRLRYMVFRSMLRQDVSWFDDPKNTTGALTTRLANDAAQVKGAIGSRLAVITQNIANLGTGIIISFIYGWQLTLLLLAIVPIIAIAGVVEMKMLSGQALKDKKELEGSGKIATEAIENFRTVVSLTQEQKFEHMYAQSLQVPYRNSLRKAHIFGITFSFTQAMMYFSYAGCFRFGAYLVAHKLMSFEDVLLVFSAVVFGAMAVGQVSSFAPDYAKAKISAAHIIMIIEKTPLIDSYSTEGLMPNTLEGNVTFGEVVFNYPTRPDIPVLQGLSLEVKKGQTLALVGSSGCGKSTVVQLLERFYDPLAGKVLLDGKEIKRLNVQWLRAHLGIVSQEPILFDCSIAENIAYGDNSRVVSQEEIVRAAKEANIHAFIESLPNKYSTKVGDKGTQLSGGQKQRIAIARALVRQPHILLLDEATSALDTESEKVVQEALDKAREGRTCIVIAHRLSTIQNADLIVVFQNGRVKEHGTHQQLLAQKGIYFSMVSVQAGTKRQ
Sequence of CYP2D6 (P10635 whole entry): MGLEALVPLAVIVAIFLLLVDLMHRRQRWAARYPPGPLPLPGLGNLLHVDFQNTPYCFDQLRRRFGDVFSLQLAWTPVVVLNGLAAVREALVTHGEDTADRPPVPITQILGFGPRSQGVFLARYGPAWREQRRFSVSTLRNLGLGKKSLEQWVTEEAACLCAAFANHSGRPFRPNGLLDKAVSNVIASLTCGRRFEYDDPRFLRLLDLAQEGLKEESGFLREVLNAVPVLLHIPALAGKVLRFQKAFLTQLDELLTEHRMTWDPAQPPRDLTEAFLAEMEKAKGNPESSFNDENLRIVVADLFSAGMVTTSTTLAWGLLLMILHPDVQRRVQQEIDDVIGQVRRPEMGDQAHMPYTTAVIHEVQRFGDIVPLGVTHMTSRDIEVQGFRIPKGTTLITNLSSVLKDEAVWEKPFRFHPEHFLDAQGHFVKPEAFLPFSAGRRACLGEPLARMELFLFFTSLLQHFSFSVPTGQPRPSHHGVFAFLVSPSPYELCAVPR

For `CC(C)n1cc(C(=O)Nc2ccc(Oc3ccnc4[nH]nc(N[C@H](C)CO)c34)c(F)c2)c(=O)n(-c2ccc(F)cc2)c1=O` [Compound 1, (R)—N-(3-fluoro-4-((3-((1-hydroxypropan-2-yl)amino)-1H-pyrazolo[3,4-b]pyridin-4-yl)oxy)phenyl)-3-(4-fluorophenyl)-1-isopropyl-2,4-dioxo-1,2,3,4-tetrahydropyrimidine-5-carboxamide], the BCRP substrate status (BCRP) was “substrate of P-gp and BCRP”, the P-gp inhibitor status (P-gp) was “inhibitor of P-gp” and the “metabolizing enzyme in vitro” value (CYP2D6) was “primarily metabolized by CYP3A4 and CYP2D6”. For the same compound, the NOAEL at 7 days (in vivo) was 200 mg/kg, the “adversity of changes in the eyes and testes” value (Sprague Dawley rats; oral QD 28 days) was “considered to be adverse” and the “dose with structural/functional changes in the eyes (outer retinal atrophy), female” value (Sprague Dawley rats; [3]) was 30 mg/kg. The “dose with structural/functional changes in the eyes (outer retinal atrophy), males” value (Sprague Dawley rats; [3]) was 100 mg/kg, the “reversibility of outer retinal atrophy” value (Sprague Dawley rats; oral QD 28 days, 28-day recovery period) was “unrecoverable” and the aqueous solubility (Aqueous solubility) was “pH dependent”. For the same compound, the “tolerability of doses and schedules” value ([1]; MC-38 study, Compound 1 50 mg/kg BID 7-28 days, monotherapy or with anti-PD-1 200 μg BIW, 50 mg/kg) was “tolerated as monotherapy and in combination with anti-PD-1; also recorded: tolerated at these doses and schedules”, the “Deaths (any cause)” value [1, 4] was 0/8 and the “Maximum % Body Weight Loss” value [1, 4] was 0.00%. The “Deaths (any cause)” value [1, 5] was 0/8, the “Maximum % Body Weight Loss” value [1, 5] was 0.23% and the “Deaths (any cause)” value [1, 6] was 0/8. The “Maximum % Body Weight Loss” value [1, 6] was 0.00%, the “Deaths (any cause)” value [1, 7] was 0/8 and the “Maximum % Body Weight Loss” value [1, 7] was 2.98%. The “Deaths (any cause)” value [1, 8] was 1/8, the “Maximum % Body Weight Loss” value [1, 8] was 0.00% and the “Deaths (any cause)” value [1, 9] was 2/8. The “Maximum % Body Weight Loss” value [1, 9] was 5.17%, the “Deaths (any cause)” value [2, 10] was 0/5 and the “Maximum % Body Weight Loss” value [2, 10] was 0.00%. For the same compound, the “Deaths (any cause)” value [2, 11] was 0/5, the “Maximum % Body Weight Loss” value [2, 11] was 0.00% and the “Deaths (any cause)” value [2, 12] was 1/5. For the same compound, the “Maximum % Body Weight Loss” value [2, 12] was 0.00%, the “Deaths (any cause)” value [2, 13] was 1/5 and the “Maximum % Body Weight Loss” value [2, 13] was 0.00%. For the same compound, the “Deaths (any cause)” value [2, 14] was 0/5, the “Maximum % Body Weight Loss” value [2, 14] was 0.00% and the “Deaths (any cause)” value [2, 15] was 0/5. For the same compound, the “Maximum % Body Weight Loss” value [2, 15] was 0.00%.
